Blank lines part the entries; values can stand above or below the molecule they belong to.
Key:
Matricaria [1] = assay: Post-emergence test, Matricaria; format: in vivo; conditions: 15 g ai/ha, after three weeks
Experimental: (§1) Solvent: 5 parts by weight of acetone
(§2) Emulsifier: 1 part by weight of alkylaryl polyglycol ether
(§3) To produce a suitable preparation of active compound, 1 part by weight of active compound is mixed with the stated amount of solvent, the stated amount of emulsifier is added and the concentrate is diluted with water to the desired concentration.
(§4) Test plants of a height of 5-15 cm are sprayed with the preparation of active compound such that the particular amounts of active compound desired are applied per unit area. The concentration of the spray liquor is chosen such that the particular amounts of active compound desired are applied in 10001 of water/ha.
(§5) After three weeks, the degree of damage to the plants is rated in % damage in comparison to the development of the untreated control.
(§6) 0%=no effect (like untreated control)

Setaria = assay: Post-emergence test, Setaria; format: in vivo; conditions: 15 g ai/ha, after three weeks, vs untreated control (Table B-1)
Experimental: as §1, §2, §3, §4, §5, §6

Abutilon = assay: Post-emergence test, Abutilon; format: in vivo; conditions: 15 g ai/ha, after three weeks
Experimental: as §1, §2, §3, §4, §5, §6

Stellaria [2] = assay: Post-emergence test, Stellaria; format: in vivo; conditions: 15 g ai/ha, after three weeks
Experimental: as §1, §2, §3, §4, §5, §6

Amaranthus [3] = assay: Pre-emergence test, Amaranthus; format: in vivo; conditions: after three weeks
Experimental: as §1, §2, §3
(§7) Seeds of the test plants are sown in normal soil. After 24 hours, the soil is sprayed with the preparation of active compounds such that the particular amount of active compound desired is applied per unit area. The concentration of active compound in the spray liquor is chosen such that the particular amount of active compound desired is applied in 1000 litres of water per hectare.
(§8) After three weeks, the degree of damage to the plants is rated in % damaged in comparison to the development of the untreated control. The figures denote:
as §6

Amaranthus [4] = assay: Post-emergence test, Amaranthus; format: in vivo; conditions: 15 g ai/ha, after three weeks
Experimental: as §1, §2, §3, §4, §5, §6

Xanthium = assay: Post-emergence test, Xanthium; format: in vivo; conditions: 15 g ai/ha, after three weeks, vs untreated control (Table B-1)
Experimental: as §1, §2, §3, §4, §5, §6

Matricaria [5] = assay: Pre-emergence test, Matricaria; format: in vivo; conditions: after three weeks
Experimental: as §1, §2, §3, §7, §8, §6

Viola = assay: Pre-emergence test, Viola; format: in vivo; conditions: after three weeks
Experimental: as §1, §2, §3, §7, §8, §6

weeds [6] = assay: Post-emergence test, action against weeds; format: in vivo
Experimental: as §1, §2, §3, §4, §5, §6

weeds [7] = assay: Pre-emergence test, action against weeds; format: in vivo
Experimental: as §1, §2, §3, §7, §8, §6

Alopecurus [8] = assay: Pre-emergence test, Alopecurus; format: in vivo; conditions: after three weeks
Experimental: as §1, §2, §3, §7, §8, §6

Solanum = assay: Pre-emergence test, Solanum; format: in vivo; conditions: after three weeks
Experimental: as §1, §2, §3, §7, §8, §6

Lolium [9] = assay: Post-emergence test, Lolium; format: in vivo; conditions: 15 g ai/ha, after three weeks, vs untreated control (Table B-2)
Experimental: as §1, §2, §3, §4, §5, §6

Echinochloa [10] = assay: Post-emergence test, Echinochloa; format: in vivo; conditions: 15 g ai/ha, after three weeks, vs untreated control (Table B-2)
Experimental: as §1, §2, §3, §4, §5, §6

Alopecurus [11] = assay: Post-emergence test, Alopecurus; format: in vivo; conditions: 15 g ai/ha, after three weeks, vs untreated control (Table B-2)
Experimental: as §1, §2, §3, §4, §5, §6

Wheat = assay: Pre-emergence test, Wheat; format: in vivo; conditions: after three weeks
Experimental: as §1, §2, §3, §7, §8, §6

Barley = assay: Pre-emergence test, Barley; format: in vivo; conditions: 4 g ai/ha, after three weeks, vs untreated control (Table A-2)
Experimental: as §1, §2, §3, §7, §8, §6

Echinochloa [12] = assay: Pre-emergence test, Echinochloa; format: in vivo; conditions: 30 g ai/ha, after three weeks
Experimental: as §1, §2, §3, §7, §8, §6

Galium = assay: Pre-emergence test, Galium; format: in vivo; conditions: 30 g ai/ha, after three weeks
Experimental: as §1, §2, §3, §7, §8, §6

Stellaria [13] = assay: Pre-emergence test, Stellaria; format: in vivo; conditions: 30 g ai/ha, after three weeks
Experimental: as §1, §2, §3, §7, §8, §6

Lolium [14] = assay: Pre-emergence test, Lolium; format: in vivo; conditions: 30 g ai/ha, after three weeks
Experimental: as §1, §2, §3, §7, §8, §6

Sugar beet = assay: Pre-emergence test, Sugar beet; format: in vivo; conditions: 30 g ai/ha, after three weeks, vs untreated control (Table A-5)
Experimental: as §1, §2, §3, §7, §8, §6

[15] = vs untreated control (Table B-1)
[16] = 8 g ai/ha, vs untreated control (Table A-1)
[17] = vs untreated control (Table B-2)
[18] = 4 g ai/ha, vs untreated control (Table A-2)
[19] = vs untreated control (Table A-3)
[20] = 30 g ai/ha, vs untreated control (Table A-3)
[21] = vs untreated control (Table A-4)
[22] = 30 g ai/ha, vs untreated control (Table A-4)
[23] = vs untreated control (Table A-5)
[24] = 30 g ai/ha, vs untreated control (Table A-5)

melting point: 147 °C
SMILES: CCc1ccccc1S(=O)(=O)N(OCCF)C(=O)n1nc(C)n(C2CC2)c1=O [Ex. 1, 4-cyclopropyl-5-methyl-2-[(2-fluoro-ethoxy)-6-ethyl-phenylsulphonylaminocarbonyl]-2,4-dihydro-3H-1,2,4-triazol-3-one]

melting point: 132 °C
SMILES: CCCOc1cccc(OCCF)c1S(=O)(=O)NC(=O)n1nc(OCC)n(C)c1=O [Ex. 32]
degree of damage, Matricaria (Matricaria [1]; [15]): 100%
degree of damage, Setaria (Setaria): 95%
degree of damage, Abutilon (Abutilon; [15]): 100%
degree of damage, Stellaria (Stellaria [2]; [15]): 100%
degree of damage, Amaranthus (Amaranthus [3]; [16]): 100%
degree of damage, Amaranthus (Amaranthus [4]; [15]): 100%
degree of damage, Xanthium (Xanthium): 100%
degree of damage, Matricaria (Matricaria [5]; [16]): 100%
degree of damage, Viola (Viola; [16]): 100%
action against weeds (weeds [6]): very strong action
action against weeds (weeds [7]): very strong action
degree of damage, Alopecurus (Alopecurus [8]; [16]): 100%
degree of damage, Solanum (Solanum; [16]): 100%

melting point: 157 °C
SMILES: CCOc1cccc(OCCF)c1S(=O)(=O)NC(=O)n1nc(OCC)n(C)c1=O [Ex. 33]
degree of damage, Matricaria (Matricaria [1]; [17]): 100%
degree of damage, Lolium (Lolium [9]): 95%
degree of damage, Echinochloa (Echinochloa [10]): 100%
degree of damage, Abutilon (Abutilon; [17]): 100%
degree of damage, Stellaria (Stellaria [2]; [17]): 100%
degree of damage, Amaranthus (Amaranthus [4]; [17]): 100%
degree of damage, Alopecurus (Alopecurus [11]): 95%
action against weeds (weeds [6]): very strong action

melting point: 123 °C
SMILES: CCCOc1nn(C(=O)NS(=O)(=O)c2c(OCC)cccc2OCCF)c(=O)n1C [Ex. 34]
degree of damage, Amaranthus (Amaranthus [3]; [18]): 95%
degree of damage, Wheat (Wheat; [18]): 0%
degree of damage, Matricaria (Matricaria [5]; [18]): 100%
degree of damage, Barley (Barley): 10%
degree of damage, Viola (Viola; [18]): 95%
action against weeds (weeds [7]): very strong action
degree of damage, Alopecurus (Alopecurus [8]; [18]): 100%
degree of damage, Solanum (Solanum; [18]): 95%

melting point: 120 °C
SMILES: COc1nn(C(=O)NS(=O)(=O)c2c(C)cccc2OCCCF)c(=O)n1C [Ex. 41]
degree of damage, Echinochloa (Echinochloa [12]; [19]): 95%
degree of damage, Galium (Galium; [19]): 100%
degree of damage, Amaranthus (Amaranthus [3]; [20]): 95%
degree of damage, Wheat (Wheat; [20]): 0%
degree of damage, Stellaria (Stellaria [13]; [19]): 100%
degree of damage, Matricaria (Matricaria [5]; [20]): 100%
action against weeds (weeds [7]): very strong action
degree of damage, Lolium (Lolium [14]; [19]): 90%

melting point: 140 °C
SMILES: CCc1cccc(OCCCF)c1S(=O)(=O)NC(=O)n1nc(CC)n(C2CC2)c1=O [Ex. 93]
degree of damage, Echinochloa (Echinochloa [12]; [21]): 100%
degree of damage, Galium (Galium; [21]): 95%
degree of damage, Amaranthus (Amaranthus [3]; [22]): 100%
degree of damage, Stellaria (Stellaria [13]; [21]): 100%
degree of damage, Viola (Viola; [22]): 100%
action against weeds (weeds [7]): very strong action
degree of damage, Alopecurus (Alopecurus [8]; [22]): 95%
degree of damage, Lolium (Lolium [14]; [21]): 95%

melting point: 130 °C
SMILES: CCCc1cccc(OCCCF)c1S(=O)(=O)NC(=O)n1nc(N(C)C)n(C2CC2)c1=O [Ex. 114]
degree of damage, Galium (Galium; [23]): 80%
degree of damage, Amaranthus (Amaranthus [3]; [24]): 95%
degree of damage, Stellaria (Stellaria [13]; [23]): 95%
action against weeds (weeds [7]): very strong action
degree of damage, Alopecurus (Alopecurus [8]; [24]): 95%
degree of damage, Lolium (Lolium [14]; [23]): 95%
degree of damage, Sugar beet (Sugar beet): 0%

Reference: patent US20040157744A1, “Substituted fluoroalkoxyphenylsulfonyl-amino(thio)carbonyltriazolino(thi)ones” (priority 2001, published 2004)
